Source: patent US10029992B2, “Diaminotriazine compounds and their use as herbicides” (BASF SE, priority 2014, dated 2018)

Columns and labels:
Test in all cases: Greenhouse experiment, post-emergence treatment
Settings in all cases: post-emergence method, application rate 125 g/ha
ABUTH = format: in vivo, Abutilon theophrasti
Method: (§1) The seeds of the test plants were sown separately for each species. […] For this purpose, the test plants were either sown directly and grown in the same containers, or they were first grown separately as seedlings and transplanted into the test containers a few days prior to treatment. Depending on the species, the plants were kept at 10-25° C. or 20-35° C., respectively. The test period extended over 2 to 4 weeks. During this time, the plants were tended, and their response to the individual treatments was evaluated. Evaluation was carried out using a scale from 0 to 100. 100 means no emergence of the plants, or complete destruction of at least the aerial moieties, and 0 means no damage, or normal course of growth. A moderate herbicidal activity is given at values of at least 60, a good herbicidal activity is given at values of at least 70, and a very good herbicidal activity is given at values of at least 85. […] [table]

SETFA = format: in vivo, Setaria faberi
Method: as §1

AMARE = format: in vivo, Amaranthus retroflexus
Method: as §1

| Structure (SMILES) | herbicidal activity against ABUTH (ABUTH) | herbicidal activity against SETFA (SETFA) | herbicidal activity against AMARE (AMARE) |
| --- | --- | --- | --- |
| CC(C)(F)c1nc(N)nc(Nc2c(F)cccc2Oc2cc(F)cc(C#N)c2)n1 [Example 59] | very good (a very good herbicidal activity is given at values of at least 85) | very good (a very good herbicidal activity is given at values of at least 85) | very good (a very good herbicidal activity is given at values of at least 85) |
| CC(C)(F)c1nc(N)nc(Nc2c(F)cccc2Oc2cc(Br)cc(Br)c2)n1 [Example 55] | very good (a very good herbicidal activity is given at values of at least 85) | very good (a very good herbicidal activity is given at values of at least 85) | very good (a very good herbicidal activity is given at values of at least 85) |
| CC(C)(F)c1nc(N)nc(Nc2c(F)cccc2Oc2cc(F)cc(Br)c2)n1 [Example 56] | good (a good herbicidal activity is given at values of at least 70) | very good (a very good herbicidal activity is given at values of at least 85) | very good (a very good herbicidal activity is given at values of at least 85) |
| CC(C)(F)c1nc(N)nc(Nc2c(F)cccc2Oc2cc(F)cc(Cl)c2)n1 [Example 54] | very good (a very good herbicidal activity is given at values of at least 85) | very good (a very good herbicidal activity is given at values of at least 85) | very good (a very good herbicidal activity is given at values of at least 85) |
| COc1cc(Cl)cc(Oc2cccc(F)c2Nc2nc(N)nc(C(C)(C)F)n2)c1 [Example 57] | very good (a very good herbicidal activity is given at values of at least 85) | very good (a very good herbicidal activity is given at values of at least 85) | very good (a very good herbicidal activity is given at values of at least 85) |
| CC(C)(F)c1nc(N)nc(Nc2c(F)cccc2Oc2cc(Cl)cc(Br)c2)n1 [Example 58] | very good (a very good herbicidal activity is given at values of at least 85) | very good (a very good herbicidal activity is given at values of at least 85) | very good (a very good herbicidal activity is given at values of at least 85) |
| CC(C)(F)c1nc(N)nc(Nc2c(F)cccc2Oc2cc(F)cc(C(F)(F)F)c2)n1 [Example 53] | very good (a very good herbicidal activity is given at values of at least 85) | very good (a very good herbicidal activity is given at values of at least 85) | very good (a very good herbicidal activity is given at values of at least 85) |
| COc1cc(F)cc(Oc2cccc(F)c2Nc2nc(N)nc(C(C)(C)F)n2)c1 [Example 62] | very good (a very good herbicidal activity is given at values of at least 85) | very good (a very good herbicidal activity is given at values of at least 85) | very good (a very good herbicidal activity is given at values of at least 85) |
| COc1cc(Br)cc(Oc2cccc(F)c2Nc2nc(N)nc(C(C)(C)F)n2)c1 [Example 61] | very good (a very good herbicidal activity is given at values of at least 85) | very good (a very good herbicidal activity is given at values of at least 85) | very good (a very good herbicidal activity is given at values of at least 85) |
| CC(C)(F)c1nc(N)nc(Nc2c(F)cccc2Oc2cc(Br)cc(OC(F)(F)F)c2)n1 [Example 60] | very good (a very good herbicidal activity is given at values of at least 85) | very good (a very good herbicidal activity is given at values of at least 85) | very good (a very good herbicidal activity is given at values of at least 85) |
